This is an account of results in patent US20200131129A1, “FARNESOID X RECEPTOR AGONISTS AND USES THEREOF” (Metacrine, Inc., priority 2017, published 2020).

This assay addresses T1, hFXR (Homo sapiens, UniProt Q96RI1).
T1 construct: expressed in transfected cells; host or cells: CV-1 cells
T1 sequence (Q96RI1 1-486): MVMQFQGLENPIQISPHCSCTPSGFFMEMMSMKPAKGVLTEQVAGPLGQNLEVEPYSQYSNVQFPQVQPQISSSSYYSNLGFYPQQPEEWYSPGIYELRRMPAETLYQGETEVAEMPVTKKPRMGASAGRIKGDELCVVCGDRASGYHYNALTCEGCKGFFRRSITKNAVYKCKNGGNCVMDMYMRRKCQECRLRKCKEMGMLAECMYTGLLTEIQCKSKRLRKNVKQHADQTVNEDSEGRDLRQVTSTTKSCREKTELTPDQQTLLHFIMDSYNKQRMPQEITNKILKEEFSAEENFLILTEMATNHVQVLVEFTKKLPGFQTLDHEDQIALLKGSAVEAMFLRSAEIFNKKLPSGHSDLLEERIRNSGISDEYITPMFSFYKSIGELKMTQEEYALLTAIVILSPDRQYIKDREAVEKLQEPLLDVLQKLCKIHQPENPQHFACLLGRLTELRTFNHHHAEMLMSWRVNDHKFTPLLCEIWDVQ
T1 sequence (P19793 1-462 partner): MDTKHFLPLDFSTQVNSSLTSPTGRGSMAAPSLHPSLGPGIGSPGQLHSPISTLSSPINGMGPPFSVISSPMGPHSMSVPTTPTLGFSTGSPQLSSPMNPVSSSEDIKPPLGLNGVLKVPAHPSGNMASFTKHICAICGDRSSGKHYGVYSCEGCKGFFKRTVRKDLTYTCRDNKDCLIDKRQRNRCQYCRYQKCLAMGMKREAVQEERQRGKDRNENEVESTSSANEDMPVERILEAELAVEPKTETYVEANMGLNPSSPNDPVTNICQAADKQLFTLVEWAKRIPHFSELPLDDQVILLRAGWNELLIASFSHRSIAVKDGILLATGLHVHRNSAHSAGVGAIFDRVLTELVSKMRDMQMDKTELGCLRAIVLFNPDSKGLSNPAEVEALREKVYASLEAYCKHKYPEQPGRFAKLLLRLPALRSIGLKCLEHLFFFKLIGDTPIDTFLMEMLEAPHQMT
The assay can be described thus: In Vitro FXR Assay (TK): hFXR/hRXR TK-ECRE-luc reporter in transfected CV-1 cells. The class given is cell-based. Particulars: CV-1 cells transfected with hFXR, hRXR, 18 hrs incubation, luminescence, maximum efficacy <25% of Fexarmine control also classified as ‘+’. As for the experimental part:
Example B-1: In Vitro FXR Assay (TK)
CV-1 cells were seeded at a density of 2,000,000 cells in a T175 flask with DMEM+10% charcoal double-stripped FBS and incubated at 37° C. in 5% CO2 for 18 h (O/N).
After 18 h of incubation, the medium in the T175 flask was changed with fresh DMEM+10% charcoal super-stripped serum. In a polypropylene tube, 2500 μL OptiMEM (Life Technologies, Cat #31985-062) was combined with expression plasmids for hFXR, hRXR, TK-ECRE-luc and pCMX-YFP. The tube was then briefly vortexed and incubated at room temperature for 5 minutes. Transfection reagent (X-tremeGENE HP from Roche, Cat #06 366 236 001) was added to the OptiMEM/plasmid mixture vortexed and incubated at room temperature for 20 minutes. Following incubation, the transfection reagent/DNA mixture complex was added to cells in the T175 flask and the cells were incubated at 37° C. in 5% CO2 for 18 h (0/N).
Compounds were serially diluted in DMSO and added to transfected CV-1 cells. The cells were then incubated for 18 hrs. The next day cells were lysed and examined for luminescence.

As for `COc1ccc([C@H]2CC[C@H](CN(c3cc(-c4ccc(N(C)C)nc4)ccn3)C(=O)[C@H]3CC[C@H](O)CC3)CC2)cc1C` [Compound 1.11, trans-N-(6-(Dimethylamino)-[3,4′-bipyridin]-2′-yl)-4-hydroxy-N-((trans-4-(4-methoxy-3-methylphenyl)cyclohexyl)methyl)cyclohexanecarboxamide], the EC50 (as a rule, the concentration at which the effect is half-maximal) is no more than 500 nM.
Consider `COc1ccc([C@H]2CC[C@H](CN(c3cccc(-c4coc(C)n4)c3)C(=O)[C@H]3CC[C@H](O)CC3)CC2)cc1C` [Compound 9.04, trans-4-Hydroxy-N-((trans-4-(4-methoxy-3-methylphenyl)cyclohexyl)methyl)-N-(3-(2-methyloxazol-4-yl)phenyl)cyclohexanecarboxamide], for which the EC50 is no more than 500 nM.
The value for `COc1ncc([C@H]2CC[C@H](CN(c3cc(-c4coc(C5CC5)n4)ccn3)C(=O)[C@H]3CC[C@H](O)CC3)CC2)cc1C` [Compound 10.23, trans-N-(4-(2-Cyclopropyloxazol-4-yl)pyridin-2-yl)-4-hydroxy-N-((trans-4-(6-methoxy-5-methylpyridin-3-yl)cyclohexyl)methyl) cyclohexanecarboxamide] was no more than 500 nM; that for `COc1ccc([C@H]2CC[C@H](CN(c3cccc(C#Cc4ncn(C)n4)c3)C(=O)[C@H]3CC[C@H](O)CC3)CC2)cc1C` [Compound 12, trans-4-Hydroxy-N-((trans-4-(4-methoxy-3-methylphenyl)cyclohexyl)methyl)-N-(3-((1-methyl-1H-1,2,4-triazol-3-yl)ethynyl)phenyl)cyclohexanecarboxamide] was no more than 500 nM.
Next, `COc1ccc([C@H]2CC[C@H](CN(c3cccc(-c4cc(C)no4)c3)C(=O)[C@H]3CC[C@H](O)CC3)CC2)cc1C` [Compound 3, trans-4-Hydroxy-N-((trans-4-(4-methoxy-3-methylphenyl)cyclohexyl)methyl)-N-(3-(3-methylisoxazol-5-yl)phenyl)cyclohexanecarboxamide]: no more than 500 nM; `COc1ccc([C@H]2CC[C@H](CN(c3cccc(-c4ncsn4)c3)C(=O)[C@H]3CC[C@H](O)CC3)CC2)cc1C` [Compound 9.07, trans-N-(3-(1,2,4-Thiadiazol-3-yl)phenyl)-4-hydroxy-N-((trans-4-(4-methoxy-3-methylphenyl)cyclohexyl)methyl) cyclohexanecarboxamide]: 500 to 1000 nM; `COc1ccc([C@H]2CC[C@H](CN(c3cccc(C#Cc4nnc[nH]4)c3)C(=O)[C@H]3CC[C@H](O)CC3)CC2)cc1C` [Compound 14, trans-N-(3-((1H-1,2,4-Triazol-3-yl)ethynyl)phenyl)-4-hydroxy-N-((trans-4-(4-methoxy-3-methylphenyl)cyclohexyl)methyl)cyclohexanecarboxamide]: no more than 500 nM.
For the compound `COc1ccc([C@H]2CC[C@H](CN(c3cccc(-c4cnc(N(C)C)cn4)c3)C(=O)[C@H]3CC[C@H](O)CC3)CC2)cc1C` [Compound 2], the EC50 is no more than 500 nM.
`COc1ccc([C@H]2CC[C@H](CN(c3cccc(-c4ccc(C(C)C)nc4)c3)C(=O)[C@H]3CC[C@H](O)CC3)CC2)cc1C` [Compound 2.03, trans-4-Hydroxy-I-(3-(6-isopropylpyridin-3-yl)phenyl)-N-((trans-4-(4-methoxy-3-methylphenyl)cyclohexyl)methyl)cyclohexanecarboxamide]: the EC50 was no more than 500 nM.
With `COc1ccc([C@H]2CC[C@H](CN(c3cccc(-n4cc(C)nn4)c3)C(=O)[C@H]3CC[C@H](O)CC3)CC2)cc1C` [Compound 9.09, trans-4-Hydroxy-N-((trans-4-(4-methoxy-3-methylphenyl)cyclohexyl)methyl)-N-(3-(4-methyl-1H-1,2,3-triazol-1-yl)phenyl)cyclohexanecarboxamide], the EC50 is no less than 1000 nM.
The value for `COc1ccc([C@H]2CC[C@H](CN(c3cccc(-c4nnc(C)s4)c3)C(=O)[C@H]3CC[C@H](O)CC3)CC2)cc1C` [Compound 2.04, trans-4-Hydroxy-N-((trans-4-(4-methoxy-3-methylphenyl)cyclohexyl)methyl)-N-(3-(5-methyl-1,3,4-thiadiazol-2-yl)phenyl)cyclohexanecarboxamide] was no less than 1000 nM.
The value for `COc1ccc([C@H]2CC[C@H](CN(c3cccc(-c4nnc(C)o4)c3)C(=O)[C@H]3CC[C@H](O)CC3)CC2)cc1C` [Compound 6, trans-4-Hydroxy-N-((trans-4-(4-methoxy-3-methylphenyl)cyclohexyl)methyl)-N-(3-(5-methyl-1,3,4-oxadiazol-2-yl)phenyl)cyclohexanecarboxamide] was no less than 1000 nM; that for `COc1ccc([C@H]2CC[C@H](CN(c3cccc(-c4cnn(C)n4)c3)C(=O)[C@H]3CC[C@H](O)CC3)CC2)cc1C` [Compound 2.09, trans-4-Hydroxy-N-((trans-4-(4-methoxy-3-methylphenyl)cyclohexyl)methyl)-N-(3-(2-methyl-2H-1,2,3-triazol-4-yl)phenyl)cyclohexanecarboxamide] was no less than 1000 nM.
Next, `COc1ccc([C@H]2CC[C@H](CN(c3cccc(-c4ccc(C5CC5)nc4)c3)C(=O)[C@H]3CC[C@H](O)CC3)CC2)cc1C` [Compound 1.07, trans-N-(3-(6-Cyclopropylpyridin-3-yl)phenyl)-4-hydroxy-N-((trans-4-(4-methoxy-3-methylphenyl)cyclohexyl)methyl)cyclohexanecarboxamide]: no more than 500 nM.
Compound `COc1ccc([C@H]2CC[C@H](CN(c3cccc(-c4cn(C)nn4)c3)C(=O)[C@H]3CC[C@H](O)CC3)CC2)cc1C` [Compound 2.05, trans-4-Hydroxy-N-((trans-4-(4-methoxy-3-methylphenyl)cyclohexyl)methyl)-N-(3-(1-methyl-1H-1,2,3-triazol-4-yl)phenyl)cyclohexanecarboxamide] came in with an EC50 of no less than 1000 nM.
Next, `COc1ccc([C@H]2CC[C@H](CN(c3cccc(-c4nnn(C)n4)c3)C(=O)[C@H]3CC[C@H](O)CC3)CC2)cc1C` [Compound 5, trans-4-Hydroxy-N-((trans-4-(4-methoxy-3-methylphenyl)cyclohexyl)methyl)-N-(3-(2-methyl-2H-tetrazol-5-yl)phenyl)cyclohexanecarboxamide]: no less than 1000 nM; `COc1ccc([C@H]2CC[C@H](CN(c3cccc(-c4ccc(N5CCCC5)nc4)c3)C(=O)[C@H]3CC[C@H](O)CC3)CC2)cc1C` [Compound 1.10, trans-4-Hydroxy-N-((trans-4-(4-methoxy-3-methylphenyl)cyclohexyl)methyl)-N-(3-(6-(pyrrolidin-1-yl)pyridine-3-yl)phenyl)cyclohexanecarboxamide]: no more than 500 nM; `COc1ccc([C@H]2CC[C@H](CN(c3cccc(-n4cnc(C5CC5)n4)c3)C(=O)[C@H]3CC[C@H](O)CC3)CC2)cc1C` [Compound 7.01, trans-N-(3-(3-Cyclopropyl-1H-1,2,4-triazol-1-yl)phenyl)-4-hydroxy-N-((trans-4-(4-methoxy-3-methylphenyl)cyclohexyl)methyl)cyclohexanecarboxamide]: no more than 500 nM.
`CCc1cc(-c2cccc(N(C[C@H]3CC[C@H](c4ccc(OC)c(C)c4)CC3)C(=O)[C@H]3CC[C@H](O)CC3)c2)ns1` [Compound 9.06, trans-N-(3-(5-Ethylisothiazol-3-yl)phenyl)-4-hydroxy-N-((trans-4-(4-methoxy-3-methylphenyl)cyclohexyl)methyl) cyclohexanecarboxamide] gave an EC50 of no more than 500 nM.
The value for `COc1ccc([C@H]2CC[C@H](CN(c3cccc(-n4nnc(C)n4)c3)C(=O)[C@H]3CC[C@H](O)CC3)CC2)cc1C` [Compound 9.05, trans-4-Hydroxy-N-((trans-4-(4-methoxy-3-methylphenyl)cyclohexyl)methyl)-N-(3-(5-methyl-2H-tetrazol-2-yl)phenyl)cyclohexanecarboxamide] was 500 to 1000 nM.
